Source: PMC12376908, “Synthesis and radiolabelled evaluation of novel pyrimidine derivatives as dual α-amylase inhibitors and GIT-targeted molecular imaging probe” (RSC Advances, 2025)
Converted amounts (≈) assume the structure as drawn.

Biological target: T1, α-amylase
T1 construct: gene AMY2; porcine pancreas is only a guess from usual DNSA assay practice
Test: DNSA alpha-amylase inhibition assay, nonlinear regression
Format: biochemical
Settings: enzyme source, substrate, pH and temperature not stated; triplicate

IC50: 34.60 ± 1.43 µg/mL (≈ 91.4 µM)
SMILES: CC(=O)C1=C(O)C=C2NC(=O)NC3=CC(O)=C(C(C)=O)C1(c1ccccc1)C23 (stereo not shown) [compound 1, 1,1′-(5,8-Dihydroxy-2-oxo-6a-phenyl-2,3,3a1,6a-tetrahydro-1H-perimidine-6,7-diyl)bis(ethan-1-one)]
